{"source": "PubChem BioAssay AID270", "about": "(DTP/NCI, 2004)", "tested_on": "BDF1 mice, s.c. Lewis lung carcinoma, T/C %", "assay": "NCI In Vivo Anticancer Drug Screen. Data for tumor model Lewis Lung Carcinoma (subcutaneous) in B6D2F1 (BDF1) mice", "how_it_was_run": "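Tumor-bearing mice were treated with test compound, and either survival or tumor size was recorded. Values are the treated-group measurement divided by that of the vehicle-treated control group.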", "key": {"[1]": {"conditions": "endpoint: median survival time, dose: 200.0 mg/kg/injection, schedule: Q01DX009 (ip), vehicle: Klucel (hydroxypropylcellulose) (HPC), higher = longer survival"}, "[2]": {"conditions": "endpoint: median survival time, dose: 12.5 mg/kg/injection, schedule: Q01DX009 (ip), vehicle: Klucel (hydroxypropylcellulose) (HPC), higher = longer survival"}, "[3]": {"conditions": "endpoint: median survival time, dose: 25.0 mg/kg/injection, schedule: Q01DX009 (ip), vehicle: Klucel (hydroxypropylcellulose) (HPC), higher = longer survival"}}, "note": "Values joined by “and” are separate entries in the source; they are usually repeats but may differ in a detail not shown here. Identical values can stand only once. Results filed as inconclusive are left out.", "data": [{"smiles": "Nc1ccc(N=Nc2ccccc2)c(N)c1", "values": [{"measurement": "T/C", "setting": "endpoint: median survival time, dose: 2.25 mg/kg/injection, schedule: Q01DX009 (ip), vehicle: Klucel (hydroxypropylcellulose) (HPC), higher = longer survival", "value": "109 % of control"}, {"measurement": "T/C", "setting": "endpoint: median survival time, dose: 4.5 mg/kg/injection, schedule: Q01DX009 (ip), vehicle: Klucel (hydroxypropylcellulose) (HPC), higher = longer survival", "value": "102 % of control"}, {"measurement": "T/C", "setting": "endpoint: median survival time, dose: 9.0 mg/kg/injection, schedule: Q01DX009 (ip), vehicle: Klucel (hydroxypropylcellulose) (HPC), higher = longer survival", "value": "106 % of control"}, {"measurement": "T/C", "setting": "endpoint: median survival time, dose: 18.0 mg/kg/injection, schedule: Q01DX009 (ip), vehicle: Klucel (hydroxypropylcellulose) (HPC), higher = longer survival", "value": "101 % of control"}, {"measurement": "T/C", "setting": "endpoint: median survival time, dose: 75.0 mg/kg/injection, schedule: Q01DX009 (ip), vehicle: Klucel (hydroxypropylcellulose) (HPC), higher = longer survival", "value": "99 % of control"}, {"measurement": "T/C", "setting": "[1]", "value": "97 % of control"}]}, {"smiles": "Nc1nc(N)c(N=O)c(Nc2ccc(Cl)c(Cl)c2)n1", "values": [{"measurement": "T/C", "setting": "endpoint: mean tumor weight, dose: 100.0 mg/kg/injection, schedule: Q01DX011 (ip), vehicle: carboxymethylcellulose (CMC), higher = larger tumour", "value": "23 % of control and 32 % of control"}, {"measurement": "T/C", "setting": "endpoint: mean tumor weight, dose: 200.0 mg/kg/injection, schedule: Q01DX011 (ip), vehicle: carboxymethylcellulose (CMC), higher = larger tumour", "value": "31 % of control and 52 % of control"}, {"measurement": "T/C", "setting": "endpoint: mean tumor weight, dose: 400.0 mg/kg/injection, schedule: Q01DX011 (ip), vehicle: carboxymethylcellulose (CMC), higher = larger tumour", "value": "32 % of control and 46 % of control"}]}, {"smiles": "Cc1c(N)nc(C(CC(N)=O)NCC(N)C(N)=O)nc1C(=O)NC(C(=O)NC(C)C(O)C(C)C(=O)NC(C(=O)NCCc1nc(-c2nc(C(=O)NCCC[S+](C)C)cs2)cs1)C(C)O)C(OC1OC(CO)C(O)C(O)C1OC1OC(CO)C(O)C(OC(N)=O)C1O)c1cnc[nH]1", "note": "(stereo unspecified)", "values": [{"measurement": "T/C", "setting": "endpoint: median survival time, dose: 0.5 mg/kg/injection, schedule: Q01DX009 (ip), vehicle: Klucel (hydroxypropylcellulose) (HPC), higher = longer survival", "value": "116 % of control"}, {"measurement": "T/C", "setting": "endpoint: median survival time, dose: 1.0 mg/kg/injection, schedule: Q01DX009 (ip), vehicle: Klucel (hydroxypropylcellulose) (HPC), higher = longer survival", "value": "121 % of control"}, {"measurement": "T/C", "setting": "endpoint: median survival time, dose: 2.0 mg/kg/injection, schedule: Q01DX009 (ip), vehicle: Klucel (hydroxypropylcellulose) (HPC), higher = longer survival", "value": "121 % of control"}, {"measurement": "T/C", "setting": "endpoint: median survival time, dose: 4.0 mg/kg/injection, schedule: Q01DX009 (ip), vehicle: Klucel (hydroxypropylcellulose) (HPC), higher = longer survival", "value": "121 % of control"}]}, {"smiles": "COC1=CC(=O)N(C(=O)C2CSC(C(CO)NC(=O)c3csc(/C=N/O)n3)=N2)C1", "note": "(stereo unspecified)", "values": [{"measurement": "T/C", "setting": "endpoint: median survival time, dose: 100.0 mg/kg/injection, schedule: Q01DX009 (ip), vehicle: Klucel (hydroxypropylcellulose) (HPC), higher = longer survival", "value": "92 % of control"}, {"measurement": "T/C", "setting": "[1]", "value": "92 % of control"}]}, {"smiles": "NC1=NC(=S)C2N=C(N=Nc3ccc(C(=O)NC(CCC(=O)O)C(=O)O)cc3)N=C2N1", "note": "(stereo unspecified)", "values": [{"measurement": "T/C", "setting": "endpoint: median survival time, dose: 0.2 mg/kg/injection, schedule: Q01DX009 (ip), vehicle: Klucel (hydroxypropylcellulose) (HPC), higher = longer survival", "value": "97 % of control"}, {"measurement": "T/C", "setting": "endpoint: median survival time, dose: 0.4 mg/kg/injection, schedule: Q01DX009 (ip), vehicle: Klucel (hydroxypropylcellulose) (HPC), higher = longer survival", "value": "93 % of control"}, {"measurement": "T/C", "setting": "endpoint: median survival time, dose: 0.78 mg/kg/injection, schedule: Q01DX009 (ip), vehicle: Klucel (hydroxypropylcellulose) (HPC), higher = longer survival", "value": "110 % of control"}]}, {"smiles": "CC1OC(O[C@@H]2C=C3CC[C@@H]4[C@H](CC[C@]5(C)[C@@H](c6ccc(=O)oc6)CC[C@]45O)[C@@]3(C)CC2)C(O)C(OC2OC(CO)C(O)C(O)C2O)C1O", "note": "(stereo partly specified)", "values": [{"measurement": "T/C", "setting": "endpoint: mean tumor weight, dose: 1.2 mg/kg/injection, schedule: Q01DX011 (ip), vehicle: carboxymethylcellulose (CMC), higher = larger tumour", "value": "106 % of control"}, {"measurement": "T/C", "setting": "endpoint: mean tumor weight, dose: 2.5 mg/kg/injection, schedule: Q01DX011 (ip), vehicle: carboxymethylcellulose (CMC), higher = larger tumour", "value": "102 % of control"}, {"measurement": "T/C", "setting": "endpoint: mean tumor weight, dose: 5.0 mg/kg/injection, schedule: Q01DX011 (ip), vehicle: carboxymethylcellulose (CMC), higher = larger tumour", "value": "80 % of control"}]}, {"smiles": "CCOC(=O)C1C(=O)C(CN(CCCl)CCCl)C(=O)C(C(=O)OCC)C1c1ccc(O)cc1", "note": "(stereo unspecified)", "values": [{"measurement": "T/C", "setting": "endpoint: median survival time, dose: 3.12 mg/kg/injection, schedule: Q01DX009 (ip), vehicle: Klucel (hydroxypropylcellulose) (HPC), higher = longer survival", "value": "94 % of control"}, {"measurement": "T/C", "setting": "endpoint: median survival time, dose: 6.25 mg/kg/injection, schedule: Q01DX009 (ip), vehicle: Klucel (hydroxypropylcellulose) (HPC), higher = longer survival", "value": "98 % of control"}, {"measurement": "T/C", "setting": "[2]", "value": "100 % of control"}, {"measurement": "T/C", "setting": "[3]", "value": "94 % of control"}]}, {"smiles": "CN(N=O)C(N)=O", "values": [{"measurement": "T/C", "setting": "endpoint: mean tumor weight, dose: 2.5 mg/kg/injection, schedule: Q01DX011 (ip), vehicle: saline, higher = larger tumour", "value": "78 % of control"}, {"measurement": "T/C", "setting": "endpoint: mean tumor weight, dose: 5.0 mg/kg/injection, schedule: Q01DX011 (ip), vehicle: saline, higher = larger tumour", "value": "77 % of control"}, {"measurement": "T/C", "setting": "endpoint: mean tumor weight, dose: 10.0 mg/kg/injection, schedule: Q01DX011 (ip), vehicle: saline, higher = larger tumour", "value": "57 % of control"}, {"measurement": "T/C", "setting": "endpoint: mean tumor weight, dose: 20.0 mg/kg/injection, schedule: Q01DX011 (ip), vehicle: saline, higher = larger tumour", "value": "20 % of control"}]}, {"smiles": "CCCCCCC(=O)NC1=C(N2CC2)C(=O)C(NC(=O)CCCCCC)=C(N2CC2)C1=O", "values": [{"measurement": "T/C", "setting": "endpoint: mean tumor weight, dose: 3.8 mg/kg/injection, schedule: Q01DX011 (ip), vehicle: other, higher = larger tumour", "value": "101 % of control"}, {"measurement": "T/C", "setting": "endpoint: mean tumor weight, dose: 7.5 mg/kg/injection, schedule: Q01DX011 (ip), vehicle: other, higher = larger tumour", "value": "81 % of control"}, {"measurement": "T/C", "setting": "endpoint: mean tumor weight, dose: 30.0 mg/kg/injection, schedule: Q01DX011 (ip), vehicle: other, higher = larger tumour", "value": "78 % of control"}, {"measurement": "T/C", "setting": "endpoint: mean tumor weight, dose: 60.0 mg/kg/injection, schedule: Q01DX011 (ip), vehicle: other, higher = larger tumour", "value": "30 % of control"}]}, {"smiles": "CN(C)[C@@H]1C(=O)C(C(N)=O)=C(O)[C@]2(O)C(=O)C3C(=O)c4c(O)ccc(Cl)c4[C@](C)(O)[C@H]3C[C@@H]12", "note": "(stereo partly specified)", "values": [{"measurement": "T/C", "setting": "[2]", "value": "117 % of control"}, {"measurement": "T/C", "setting": "[3]", "value": "120 % of control"}, {"measurement": "T/C", "setting": "endpoint: median survival time, dose: 50.0 mg/kg/injection, schedule: Q01DX009 (ip), vehicle: Klucel (hydroxypropylcellulose) (HPC), higher = longer survival", "value": "102 % of control and 123 % of control"}]}]}
